The test system of this assay is CD2F1 mice, L1210 leukemia sc, survival T/C. Briefly: NCI In Vivo Anticancer Drug Screen. Data for tumor model L1210 Leukemia (subcutaneous) in CD2F1 (CDF1) mice. The note with it: endpoint: median survival time; dose: 300.0 mg/kg/injection; schedule: Q01DX Z (sc); vehicle: saline; higher = longer survival. The essentials: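 Mice with transplanted tumor dosed; survival/tumor size read; T/C vs vehicle controls.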

This is an account of results in PubChem BioAssay AID258 (DTP/NCI, 2004).

SMILES strings stand for the structures. Inconclusive results and toxic doses are left out.

On to `O=C(O)c1cc(=O)[nH]c(=O)[nH]1`, for which the T/C is 100 % of control.
